Results as given in patent publication US20250213735A1, “NEUROPEPTIDE Y1 RECEPTOR (NPY1R) TARGETED THERAPEUTICS AND USES THEREOF” (Radionetics Oncology, Inc., priority 2023, published 2025).
pKi: −log10 of the molar value. Numbered stars: 1 amine (or outer) side, 2 acyl side, 3 side chain; on linkers, the order of the positions; unused ones are H or OH. Square brackets hold non-standard residues; d marks the D form. Peptide text beside a SMILES is read from it. * marks the point of attachment. dArg(Nω-CONH(CH2)2NHCOEt) = CCC(=O)NCCNC(=O)/N=C(/N)NCCC[C@@H](N)C(=O)O; DOTA = O=C(O)CN1CCN(CC(=O)O)CCN(CC(=O)*)CCN(CC(=O)O)CC1; X2 = O=C([C@H](c1cccc(NCCCN[*:1])c1)N1Cc2ccccc2C1)[*:2]; NH(4-OH-benzyl) = Oc1ccc(CN*)cc1; Sar = CNCC(=O)O

target: hNPY1R (Homo sapiens (Human), UniProt P25929); assay: NPY1R binding assay (SK-N-MC membrane, [125I]-Peptide YY competition); conditions: crude SK-N-MC membranes endogenously expressing NPY1R; [125I]-Peptide YY (human) 0.05 nM; 120 min at room temperature; read-out: hNPY1R binding Ki;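 also: bound radioligand separated by filtration over GF/C filter plates and counted, Ki obtained by non-linear regression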
Sequence (P25929 whole entry): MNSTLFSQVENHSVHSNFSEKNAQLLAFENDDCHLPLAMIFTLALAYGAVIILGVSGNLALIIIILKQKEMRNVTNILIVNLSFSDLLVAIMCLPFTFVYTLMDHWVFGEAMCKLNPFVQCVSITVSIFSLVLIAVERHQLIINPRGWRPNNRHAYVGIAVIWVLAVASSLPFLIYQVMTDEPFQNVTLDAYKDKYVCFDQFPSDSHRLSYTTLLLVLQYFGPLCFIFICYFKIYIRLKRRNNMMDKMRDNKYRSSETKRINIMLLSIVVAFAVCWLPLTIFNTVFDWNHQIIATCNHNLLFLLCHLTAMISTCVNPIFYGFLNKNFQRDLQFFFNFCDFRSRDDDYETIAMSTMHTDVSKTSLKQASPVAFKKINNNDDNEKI
Method: Crude membrane fractions are prepared from SK-N-MC cells endogenously expressing the NPY1R receptor. The cells are grown to 85-100% confluence on standard tissue culture dishes in Eagle's Minimum Essential Medium supplemented with 10% dialyzed FBS. To prepare membranes, cells are scraped and collected in 1× Dulbecco's phosphate buffered saline and then pelleted at 1000 RPM's. The cell pellet is reconstituted in membrane preparation buffer (20 mM HEPES, 6 mM MgCl2 and 1 mM EGTA, protease inhibitor tablets, pH 7.4) and placed in a cell disruption vessel at 1000 PSI for 30 minutes on ice. The pressurized contents are then released and spun down at 1000 RPMs and the supernatant is collected and further centrifuged at 15,000 RPMs to pellet the membranes. The membrane pellet is resuspended in membrane preparation buffer, snap frozen and stored at −80° C. for later use.
Assay contents are then filtered through unifilter GF/C microplates and washed with 9×400 μl of cold wash buffer (25 mM HEPES, 5 mM MgCl2, 1 mM CaCl2), 500 mM NaCl, 0.1% Tween-20, pH 7.4). Assay plates are read using a Top Count NXT and Ki values for compounds are determined using a GraphPad Prism 6 non-linear regression analysis.

SMILES	pKi
CCC(=O)NCCNC(=O)/N=C(/N)NCCC[C@@H](NC(=O)[C@H](c1ccccc1)N1Cc2cccc(NCCCNC(=O)C[C@H](O)C[C@H](O)CCNC(=O)CN3CCN(CC(=O)O)CCN(CC(=O)O)CCN(CC(=O)O)CC3)c2C1)C(=O)NCc1c(F)cc(O)cc1F [compound 41, 2,2′,2″-(10-(2-(((3R,5R)-7-((3-((2-((1S,4R,Z)-9-amino-4-((2,6-difluoro-4-hydroxybenzyl)carbamoyl)-2,11,16-trioxo-1-phenyl-3,8,10,12,15-pentaazaoctadec-9-en-1-yl)isoindolin-4-yl)amino)propyl)amino)-3,5-dihydroxy-7-oxoheptyl)amino)-2-oxoethyl)-1,4,7,10-tetraazacyclododecane-1,4,7-triyl)triacetic acid]	> 8.00
CCC(=O)NCCNC(=O)/N=C(/N)NCCC[C@@H](NC(=O)[C@H](c1ccc(OCCCNC(=O)CCC(=O)NCCNC(=O)CN2CCN(CC(=O)O)CCN(CC(=O)O)CCN(CC(=O)O)CC2)cc1)N1Cc2ccccc2C1)C(=O)NCc1c(F)cc(O)cc1F [compound 7, 2,2′,2″-(10-(2-((2-(4-((3-(4-((1S,4R,Z)-9-amino-4-((2,6-difluoro-4-hydroxybenzyl)carbamoyl)-1-(isoindolin-2-yl)-2,11,16-trioxo-3,8,10,12,15-pentaazaoctadec-9-en-1-yl)phenoxy)propyl)amino)-4-oxobutanamido)ethyl)amino)-2-oxoethyl)-1,4,7,10-tetraazacyclododecane-1,4,7-triyl)triacetic acid-2,2,2-trifluoroacetic acid (1/1)]	> 8.00
CCC(=O)NCCNC(=O)/N=C(/N)NCCC[C@@H](NC(=O)[C@H](c1ccc(OCCCNC(=O)CN2CCN(CC(=O)O)CCN(CC(=O)O)CCN(CC(=O)O)CC2)cc1)N1Cc2ccccc2C1)C(=O)NCc1ccc(O)cc1 [compound 59, 2,2′,2″-(10-(2-((3-(4-((1S,4R,Z)-9-amino-4-((4-hydroxybenzyl)carbamoyl)-1-(isoindolin-2-yl)-2,11,16-trioxo-3,8,10,12,15-pentaazaoctadec-9-en-1-yl)phenoxy)propyl)amino)-2-oxoethyl)-1,4,7,10-tetraazacyclododecane-1,4,7-triyl)triacetic acid]	> 8.00
CCC(=O)NCCNC(=O)/N=C(/N)NCCC[C@@H](NC(=O)[C@H](c1cccc(NCCCNC(=O)CCOCCOCCOCCOCCOCCOCCNC(=O)CN2CCN(CC(=O)O)CCN(CC(=O)O)CCN(CC(=O)O)CC2)c1)N1Cc2ccccc2C1)C(=O)NCc1ccc(O)cc1 [compound 23, 2,2′,2″-(10-(28-((3-((1S,4R,Z)-9-amino-4-((4-hydroxybenzyl)carbamoyl)-1-(isoindolin-2-yl)-2,11,16-trioxo-3,8,10,12,15-pentaazaoctadec-9-en-1-yl)phenyl)amino)-2,24-dioxo-6,9,12,15,18,21-hexaoxa-3,25-diazaoctacosyl)-1,4,7,10-tetraazacyclododecane-1,4,7-triyl)triacetic acid]	> 8.00
CCC(=O)NCCNC(=O)/N=C(/N)NCCC[C@@H](NC(=O)[C@H](c1ccc(OCCCNC(=O)[C@@H](CC(N)=O)NC(=O)CCNC(=O)CN2CCN(CC(=O)O)CCN(CC(=O)O)CCN(CC(=O)O)CC2)cc1)N1Cc2ccccc2C1)C(=O)NCc1c(F)cc(O)cc1F [compound 50, 2,2′,2″-(10-(2-((3-(((R)-4-amino-1-((3-(4-((1S,4R,Z)-9-amino-4-((2,6-difluoro-4-hydroxybenzyl)carbamoyl)-1-(isoindolin-2-yl)-2,11,16-trioxo-3,8,10,12,15-pentaazaoctadec-9-en-1-yl)phenoxy)propyl)amino)-1,4-dioxobutan-2-yl)amino)-3-oxopropyl)amino)-2-oxoethyl)-1,4,7,10-tetraazacyclododecane-1,4,7-triyl)triacetic acid]	> 8.00
CCC(=O)NCCNC(=O)/N=C(/N)NCCC[C@@H](NC(=O)[C@H](c1ccc(OCCCNC(=O)C[C@H]2NC(=O)[C@@H](CCNC(=O)CN3CCN(CC(=O)O)CCN(CC(=O)O)CCN(CC(=O)O)CC3)NC2=O)cc1)N1Cc2ccccc2C1)C(=O)NCc1c(F)cc(O)cc1F [compound 52, 2,2′,2″-(10-(2-((2-((2R,5R)-5-(2-((3-(4-((1S,4R,Z)-9-amino-4-((2,6-difluoro-4-hydroxybenzyl)carbamoyl)-1-(isoindolin-2-yl)-2,11,16-trioxo-3,8,10,12,15-pentaazaoctadec-9-en-1-yl)phenoxy)propyl)amino)-2-oxoethyl)-3,6-dioxopiperazin-2-yl)ethyl)amino)-2-oxoethyl)-1,4,7,10-tetraazacyclododecane-1,4,7-triyl)triacetic acid]	> 8.00
CCC(=O)NCCNC(=O)/N=C(/N)NCCC[C@@H](NC(=O)[C@H](c1cccc(NCCCNC(=O)CN(C)C(=O)CN(C)C(=O)CN(C)C(=O)CN2CCN(CC(=O)O)CCN(CC(=O)O)CCN(CC(=O)O)CC2)c1)N1Cc2ccccc2C1)C(=O)NCc1ccc(O)cc1 [compound 21, 2,2′,2″-(10-(15-((3-((1S,4R,Z)-9-amino-4-((4-hydroxybenzyl)carbamoyl)-1-(isoindolin-2-yl)-2,11,16-trioxo-3,8,10,12,15-pentaazaoctadec-9-en-1-yl)phenyl)amino)-3,6,9-trimethyl-2,5,8,11-tetraoxo-3,6,9,12-tetraazapentadecyl)-1,4,7,10-tetraazacyclododecane-1,4,7-triyl)triacetic acid] ({DOTA}-[Sar][Sar][Sar][X2][dArg(Nω-CONH(CH2)2NHCOEt)]-{NH(4-OH-benzyl)})	> 8.00
CC(C)CC1CCN(C(C(=O)N[C@H](CCCNC(=N)N)C(=O)NCc2ccc(O)cc2)c2ccccc2)CC1 (stereo partly drawn) [compound 82, (2R)-5-guanidino-N-(4-hydroxybenzyl)-2-(2-(4-isobutylpiperidin-1-yl)-2-phenylacetamido)pentanamide]	6.00 to 7.00
CCC(=O)NCCNC(=O)/N=C(/N)NCCC[C@@H](NC(=O)[C@H](c1ccc(OCCCNC(=O)[C@@H](CC(N)=O)NC(=O)[C@@H](CO)NC(=O)CCNC(=O)CN2CCN(CC(=O)O)CCN(CC(=O)O)CCN(CC(=O)O)CC2)cc1)N1Cc2ccccc2C1)C(=O)NCc1c(F)cc(O)cc1F [compound 51, 2,2′,2″-(10-((8R,11R)-11-(2-amino-2-oxoethyl)-16-(4-((1S,4R,Z)-9-amino-4-((2,6-difluoro-4-hydroxybenzyl)carbamoyl)-1-(isoindolin-2-yl)-2,11,16-trioxo-3,8,10,12,15-pentaazaoctadec-9-en-1-yl)phenoxy)-8-(hydroxymethyl)-2,6,9,12-tetraoxo-3,7,10,13-tetraazahexadecyl)-1,4,7,10-tetraazacyclododecane-1,4,7-triyl)triacetic acid]	> 8.00
CCC(=O)NCCNC(=O)/N=C(/N)NCCC[C@@H](NC(=O)[C@H](c1ccc(OCCCNC(=O)CCOCCNC(=O)c2ccc(CNC(=O)CN3CCN(CC(=O)O)CCN(CC(=O)O)CCN(CC(=O)O)CC3)cc2)cc1)N1Cc2ccccc2C1)C(=O)NCc1ccc(O)cc1 [compound 17, 2,2′,2″-(10-(2-((4-((2-(3-((3-(4-((1S,4R,Z)-9-amino-4-((4-hydroxybenzyl)carbamoyl)-1-(isoindolin-2-yl)-2,11,16-trioxo-3,8,10,12,15-pentaazaoctadec-9-en-1-yl)phenoxy)propyl)amino)-3-oxopropoxy)ethyl)carbamoyl)benzyl)amino)-2-oxoethyl)-1,4,7,10-tetraazacyclododecane-1,4,7-triyl)triacetic acid]	> 8.00
CCC(=O)NCCNC(=O)/N=C(/N)NCCC[C@@H](NC(=O)[C@H](c1ccc(OCCCN(C)CCCCCNC(=O)CN2CCN(CC(=O)O)CCN(CC(=O)O)CCN(CC(=O)O)CC2)cc1)N1Cc2ccccc2C1)C(=O)NCc1c(F)cc(O)cc1F [compound 56, 2,2′,2″-(10-(2-((5-((3-(4-((1S,4R,Z)-9-amino-4-((2,6-difluoro-4-hydroxybenzyl)carbamoyl)-1-(isoindolin-2-yl)-2,11,16-trioxo-3,8,10,12,15-pentaazaoctadec-9-en-1-yl)phenoxy)propyl)(methyl)amino)pentyl)amino)-2-oxoethyl)-1,4,7,10-tetraazacyclododecane-1,4,7-triyl)triacetic acid]	> 8.00
CCC(=O)NCCNC(=O)/N=C(/N)NCCC[C@@H](NC(=O)[C@H](c1cccc(N(C)CCCNC(=O)CCCCCNC(=O)CN2CCN(CC(=O)O)CCN(CC(=O)O)CCN(CC(=O)O)CC2)c1)N1Cc2ccccc2C1)C(=O)NCc1ccc(O)cc1 [compound 11, 2,2′,2″-(10-(2-((6-((3-((3-((1S,4R,Z)-9-amino-4-((4-hydroxybenzyl)carbamoyl)-1-(isoindolin-2-yl)-2,11,16-trioxo-3,8,10,12,15-pentaazaoctadec-9-en-1-yl)phenyl)(methyl)amino)propyl)amino)-6-oxohexyl)amino)-2-oxoethyl)-1,4,7,10-tetraazacyclododecane-1,4,7-triyl)triacetic acid]	> 8.00
CCC(=O)NCCNC(=O)/N=C(/N)NCCC[C@@H](NC(=O)[C@H](c1cccc(NCCCNc2c(NCCCCCCNC(=O)CN3CCN(CC(=O)O)CCN(CC(=O)O)CCN(CC(=O)O)CC3)c(=O)c2=O)c1)N1Cc2ccccc2C1)C(=O)NCc1ccc(O)cc1 [compound 2, 2,2′,2″-(10-(2-((6-((2-((3-((3-((1S,4R,Z)-9-amino-4-((4-hydroxybenzyl)carbamoyl)-1-(isoindolin-2-yl)-2,11,16-trioxo-3,8,10,12,15-pentaazaoctadec-9-en-1-yl)phenyl)amino)propyl)amino)-3,4-dioxocyclobut-1-en-1-yl)amino)hexyl)amino)-2-oxoethyl)-1,4,7,10-tetraazacyclododecane-1,4,7-triyl)triacetic acid-formic acid (1/1)]	> 8.00
CCC(=O)NCCNC(=O)/N=C(/N)NCCC[C@@H](NC(=O)[C@H](c1ccc(OCCCNC(=O)C[C@H]2NC(=O)[C@@H](CCCNC(=O)CN3CCN(CC(=O)O)CCN(CC(=O)O)CCN(CC(=O)O)CC3)NC2=O)cc1)N1Cc2ccccc2C1)C(=O)NCc1c(F)cc(O)cc1F [compound 38, 2,2′,2″-(10-(2-((3-((2R,5R)-5-(2-((3-(4-((1S,4R,Z)-9-amino-4-((2,6-difluoro-4-hydroxybenzyl)carbamoyl)-1-(isoindolin-2-yl)-2,11,16-trioxo-3,8,10,12,15-pentaazaoctadec-9-en-1-yl)phenoxy)propyl)amino)-2-oxoethyl)-3,6-dioxopiperazin-2-yl)propyl)amino)-2-oxoethyl)-1,4,7,10-tetraazacyclododecane-1,4,7-triyl)triacetic acid]	> 8.00
